Data published in patent US12275725B2, “Inhibitors of the notch transcriptional activation complex and methods for use of the same” (University of Miami, priority 2019, dated 2025).
Converted amounts (≈) assume the structure as drawn. Read-outs that look alike come from different tables or passages of the source.

Tests used:
[1] = Aqueous solubility in SGF, FaSSIF and PBS
[2] = molecular target: T1, Notch transcriptional activation complex (NTC) (Homo sapiens, UniProt P46531+Q06330); test: Notch complex assembly assay (NTC AlphaScreen assay); format: binding
T1 construct: made in house; host or cells: SF21 insect cells (baculovirus)
T1 sequence (P46531 1754-2555 limits assumed): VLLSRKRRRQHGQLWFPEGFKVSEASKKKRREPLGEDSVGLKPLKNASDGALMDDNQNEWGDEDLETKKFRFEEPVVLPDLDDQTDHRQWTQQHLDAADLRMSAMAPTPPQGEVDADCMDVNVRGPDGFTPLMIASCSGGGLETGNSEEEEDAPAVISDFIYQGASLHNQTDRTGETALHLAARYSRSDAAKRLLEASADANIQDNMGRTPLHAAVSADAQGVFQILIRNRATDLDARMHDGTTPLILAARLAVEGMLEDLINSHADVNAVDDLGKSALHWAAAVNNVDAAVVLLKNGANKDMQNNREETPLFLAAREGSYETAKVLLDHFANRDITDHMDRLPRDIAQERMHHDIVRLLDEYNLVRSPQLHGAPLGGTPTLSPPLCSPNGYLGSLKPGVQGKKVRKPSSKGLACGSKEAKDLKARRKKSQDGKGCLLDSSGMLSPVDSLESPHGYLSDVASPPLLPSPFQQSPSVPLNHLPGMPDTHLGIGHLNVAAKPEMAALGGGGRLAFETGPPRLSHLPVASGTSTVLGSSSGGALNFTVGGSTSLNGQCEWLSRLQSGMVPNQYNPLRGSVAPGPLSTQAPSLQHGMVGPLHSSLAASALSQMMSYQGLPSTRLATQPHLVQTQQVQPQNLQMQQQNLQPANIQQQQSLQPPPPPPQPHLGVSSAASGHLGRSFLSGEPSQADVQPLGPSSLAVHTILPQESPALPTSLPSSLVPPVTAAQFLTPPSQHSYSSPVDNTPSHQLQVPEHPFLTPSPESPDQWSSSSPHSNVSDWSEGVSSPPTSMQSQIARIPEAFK
T1 sequence (Q06330 whole entry): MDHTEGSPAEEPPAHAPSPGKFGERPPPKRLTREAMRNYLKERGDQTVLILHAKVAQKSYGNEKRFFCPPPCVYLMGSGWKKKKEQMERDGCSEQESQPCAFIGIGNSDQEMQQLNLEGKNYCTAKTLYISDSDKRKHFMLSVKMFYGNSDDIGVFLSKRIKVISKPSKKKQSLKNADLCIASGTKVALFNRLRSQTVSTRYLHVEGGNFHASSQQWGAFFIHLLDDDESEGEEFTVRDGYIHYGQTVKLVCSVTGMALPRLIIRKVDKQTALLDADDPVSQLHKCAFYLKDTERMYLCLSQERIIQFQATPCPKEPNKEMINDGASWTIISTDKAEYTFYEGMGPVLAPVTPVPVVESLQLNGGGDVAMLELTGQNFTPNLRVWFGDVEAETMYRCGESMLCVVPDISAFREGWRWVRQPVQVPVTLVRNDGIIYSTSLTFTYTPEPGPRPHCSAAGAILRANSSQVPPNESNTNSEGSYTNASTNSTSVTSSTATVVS
Procedure: Notch Complex Assembly Assay
All recombinant proteins were expressed using baculovirus expression vectors in SF21 cells and purified. Unless otherwise stated, all assays contained 125 fmol of double stranded oligonucleotide, CSL, Notch1 and MAML1 proteins. Reactions were carried out in Tris-buffered saline with 0.1% Tween (“TBS-T”) buffer containing 0.2% bovine serum albumin (“BSA”) and 100 μg/mL salmon sperm DNA. Briefly, the Notch complex was assembled on a biotinylated double stranded (“DS”) oligonucleotide harboring one CSL binding site (5′-[…]-3′). Complex assembly was quantitated using ALPHASCREEN technology (Perkin Elmer). Proteins in the complexes were detected using specific antibodies to either MAML1 (Cell signaling, D3K7B), Notch1 (Abcam, 52627) or CSL (anti-His, Abcam 18184). Streptavidin conjugated […] beads (Perkin Elmer, 6760002) were used to bind the DS oligonucleotide, and Protein-A conjugated […] beads (Perkin Elmer, 6760137) were used to detect antibody-coated proteins. For screening compounds, Notch transcriptional activation complex (“NTC”) components were added to wells that already contained the inhibitor to be assayed and allowed to incubate for 30 minutes. The ALPHASCREEN plate (Perkin Elmer, 6008350) was then read on an Envision Plate reader (Perkin Elmer) as specified by the manufacturer.

[3] = Pharmacokinetic study in mouse plasma; format: in vivo; conditions: for Cmax: read-out: *C0/Cmax
Procedure: Pharmacokinetic studies were performed as previously described (Astudillo et al. (2016) Cancer Res). The following treatments were administered: NADi-260 via intraperitoneal (i.p.) route at 100 mg/kg, NADI-260 via intravenous route (i.v.) at 2 mg/kg, NADi-351 via i.p. at 10 mg/kg, NADi-351 via […] at 10 mg/kg and NADi-351 via oral route (PO) at 50 mg/kg. Blood samples were collected from each treatment group and their respective control grounds, plasma was separated from blood immediately by centrifugation at 4000 rpm for 10 min at 4° C. and stored below −70° C. until bioanalysis. All samples were processed for analysis by protein precipitation using acetonitrile and analyzed by fit for purpose LC-MS/MS method. Pharmacokinetic parameters were calculated using the non-compartmental analysis module of Phoenix WinNonlin (Version 6.3). Histological Analysis of Mouse Intestine Tissue

[4] = GSH ethyl ester conjugation / parent remaining in human liver microsomes; format: in vitro ADME; conditions: for Percentage (%) Parent Remaining in HLM: reacted with GSH
OE 33 cell line = test: Cell viability, MTT, OE33 cell line; format: cell-based, human; conditions: for IC50: Homo sapiens, OE33, 72 h treatment
Source text: OE33 cells, human esophageal adenocarcinoma cell lines, were obtained from the European Collection of Cell Culture. SUM-149 and SUM-159, breast cancer cell lines, were obtained from Dr. Joyce Slingerland at the University of Miami School of Medicine. The following cell lines were obtained directly from the ATCC: 786-0, a human renal cell adenocarcinoma cell line; HT-1080, a human fibrosarcoma cell line; MCF-7, a mammary gland adenocarcinoma; T47D, a human mammary ductal carcinoma cell line; and H-23 a non-small cell lung adenocarcinoma cell line. All cell lines were propagated in growth media as specified.

[5] = Metabolism to acid form in mouse hepatocytes; format: in vitro ADME; conditions: to SSTN-258
[6] = Metabolism to acid form in liver microsomes; format: in vitro ADME; conditions: to SSTN-258
[7] = pH 1.2, simulated gastric fluid
[8] = Table C, NTC AlphaScreen assay, read-out: *IC50
[9] = ip, NADi-260 i.p. 100 mg/kg, mouse plasma
[10] = iv, NADi-260 i.v. 2 mg/kg, mouse plasma, back extrapolated, initial three time points only
[11] = iv, NADi-260 i.v. 2 mg/kg, mouse plasma, initial three time points only
[12] = Table E, NTC AlphaScreen assay, read-out: *IC50
[13] = Table B, read-out: IC50 (μM) NTC

## O=C(O)CCCc1ccc(N(CCCl)CCCl)cc1 [Chlorambucil, chlorambucil]
[1]; [7]
  solubility: 70.4 ± 2.6 µM (≈ 21.4 µg/mL)
[1]; pH 6.5, fassif
  solubility: 68.9 ± 1.9 µM (≈ 21 µg/mL)

## CC/C(=C(/CC)c1ccc(O)cc1)c1ccc(O)cc1 [DES, diethylstilbestrol, reference compound]
physchem; pH 7.4, aqueous buffer
  solubility: < 5 µM

## CCN(CC)C(=O)COc1c(F)cc(/C=C2\SC(=S)N(CC(=O)N(C)C)C2=O)cc1OC [NADi-244]
[2]; [8]
  IC50: 2.9 µM

## COc1cc(/C=C2\SC(=S)N(CC(=O)N(C)C)C2=O)cc(F)c1OCc1ncco1 [NADi-248]
[2]; Table C, NTC AlphaScreen assay
  *IC50 (μM): Inactive

## COc1cc(/C=C2\SC(=S)N(CC(=O)N(C)C)C2=O)cc(F)c1OCc1ncc(C)o1 [NADi-249]
[2]; Table C, NTC AlphaScreen assay
  *IC50 (μM): Inactive

## COc1cc(/C=C2\SC(=S)N(CC(=O)N(C)C)C2=O)cc(F)c1OCc1nc(C)c(C)o1 [NADi-251]
[2]; Table C, NTC AlphaScreen assay
  *IC50 (μM): Inactive

## CCc1coc(COc2c(F)cc(/C=C3\SC(=S)N(CC(=O)N(C)C)C3=O)cc2OC)n1 [NADi-253]
[2]; [8]
  IC50: 0.3 µM

## COc1cc(/C=C2\SC(=S)N(CC(=O)N(C)C)C2=O)cc(F)c1OCc1nnc(C)o1 [NADi-255]
[2]; Table C, NTC AlphaScreen assay
  *IC50 (μM): Inactive

## CCc1nnc(COc2c(F)cc(/C=C3\SC(=S)N(CC(=O)N(C)C)C3=O)cc2OC)o1 [NADi-256]
[2]; Table C, NTC AlphaScreen assay
  *IC50 (μM): Inactive

## COc1cc(/C=C2\SC(=S)N(CC(=O)N(C)C)C2=O)cc(F)c1OCc1nc(C)no1 [NADi-258]
[2]; Table C, NTC AlphaScreen assay
  *IC50 (μM): Inactive

## CCc1noc(COc2c(F)cc(/C=C3\SC(=S)N(CC(=O)N(C)C)C3=O)cc2OC)n1 [NADi-259]
[2]; Table C, NTC AlphaScreen assay
  *IC50 (μM): Inactive

## COc1cc(/C=C2\SC(=S)N(CC(=O)N(C)C)C2=O)cc(F)c1OCc1nc[nH]n1 [NADi-260, (Z)-2-(5-(4-((1H-1,2,4-triazol-3-yl)methoxy)-3-fluoro-5-methoxybenzylidene)-4-oxo-2-thioxothiazolidin-3-yl)-N,N-dimethylacetamide]
[3]; [9]
  AUC(0-inf): 5420 ng·h/mL
  AUC(0-t): 5320 ng·h/mL
  Tmax: 4.8 min
  Cmax: 5700 ng/mL
[3]; [10]
  Cmax: 837 ng/mL
[3]; iv, NADi-260 i.v. 2 mg/kg, mouse plasma, cell says NR, value in footnote
  clearance: 429 mL/min/kg
[3]; [11]
  AUC(0-inf): 78 ng·h/mL
  AUC(0-t): 77 ng·h/mL
  half-life: 4.8 min
[3]; iv, NADi-260 i.v. 2 mg/kg, mouse plasma, read-out: Vss
  Vd: 1.79 L/kg
[4]; incubation time 0 min
  Percentage (%) Parent Remaining in HLM: 100%
[4]; incubation time 60 min
  Percentage (%) Parent Remaining in HLM: 46%
[4]; within 60 minutes of incubation
  GSH ethyl ester conjugation in HLM: showed GSH ethyl ester conjugation
[2]; [8]
  IC50: 0.02 µM
[2]; [12]
  IC50: 0.02 µM

## COc1cc(/C=C2\SC(=S)N(CC(=O)N(C)C)C2=O)cc(F)c1OCc1nnc(C)[nH]1 [NADi-261]
[2]; [8]
  IC50: 0.62 µM

## CCc1nnc(COc2c(F)cc(/C=C3\SC(=S)N(CC(=O)N(C)C)C3=O)cc2OC)[nH]1 [NADi-262]
[2]; [8]
  IC50: 0.08 µM

## COc1ccc2[nH]c([S+]([O-])Cc3ncc(C)c(OC)c3C)nc2c1 (centres unmarked) [Omeprazole, omeprazole, reference compound]
physchem; [7]
  solubility: < 5 µM
physchem; pH 6.5, fassif
  solubility: 174 ± 5.4 µM (≈ 60 µg/mL)

## COc1cc(/C=C2\SC(=S)N(CC(=O)N(C)C)C2=O)cc(F)c1O [PM6]
[3]; after NADi-260 i.v. 2 mg/kg, mouse plasma
  plasma level of metabolite: BQL
[3]; [9]
  AUC(0-t): 21 ng·h/mL
  Tmax: 15 min
  Cmax: 41 ng/mL

## COc1cc(CC2SC(=S)N(CC(=O)N(C)C)C2=O)cc(F)c1OCc1nnc[nH]1 (centres unmarked) [PM7]
[3]; [9]
  AUC(0-inf): 19100 ng·h/mL
  AUC(0-t): 18800 ng·h/mL
  Tmax: 15 min
  Cmax: 8520 ng/mL
[3]; [10]
  Cmax: 3480 ng/mL
[3]; [11]
  AUC(0-inf): 310 ng·h/mL
  AUC(0-t): 308 ng·h/mL

## CCOC(=O)COc1ccc(F)cc1/C=C1\SC(=S)N(CC(=O)N(C)C)C1=O [SSTN-251]
OE 33 cell line
  IC50: 12.8 µM
[2]; [13]
  IC50: 5.1 µM

## CCOC(=O)COc1c(F)cc(/C=C2\SC(=S)N(CC(=O)N(C)C)C2=O)cc1OC [SSTN-253]
[5]
  time to metabolize to acid form: ≤ 15 min
[6]
  time to metabolize to acid form: ≤ 15 min
[3]; pharmacokinetic study of SSTN-253, FIG. 1C
  metabolism in mouse plasma: metabolizes to its acid form (SSTN-258)
OE 33 cell line
  IC50: 9.3 µM
[2]; [13]
  IC50: 0.058 µM
[2]; [8]
  IC50: 0.06 µM
[2]; [12]
  IC50: 0.06 µM

## COc1cc(/C=C2\SC(=S)N(CC(=O)N(C)C)C2=O)ccc1OCC(=O)O [SSTN-254]
OE 33 cell line
  IC50: > 25 µM
[2]; [13]
  IC50: 4.4 µM

## COc1cc(/C=C2\SC(=S)N(CC(=O)N(C)C)C2=O)cc(F)c1OCC(=O)O [SSTN-258]
OE 33 cell line
  Cell viability (MTT, μM, 72 h treatment OE 33 cell line): No effect
[2]; FIG. 1B
  inhibition of NTC assembly: did not inhibit
[2]; Table B
  IC50 (μM) NTC: Inactive
